Reference: patent US10179148B2, “Keratolytic composition with anti-allergic anti-inflammatory properties” (priority 2003, dated 2019)

Tested on: psoriasis patients
Assay: topical testing of cleansing/topical compositions on psoriasis patients
Type: in vivo, human
Conditions: in cleansing liquid along with gentle surfactants sodium laureth sulfate and ammonium laureth sulfate; psoriasis effected patients; 5 patients
From the text: Most of the cleansing agents contain sodium chloride and/or ammonium chloride and/or potassium chloride.
This invention is lead by desire for developing a new and innovative treatment, which can be used in the longer periods of time without side effect associated with other products. The Topical Composition given in the example being used for more than 6 months and also tested on other psoriasis patients with encouraging results.
Though the exact mechanism of action of quaternary ammonium compounds, such as ammonium chloride, and vanilla is not fully understood, actual testing on psoriasis patients have shown encouraging results without side effects associated with steroids and other presently available psoriasis topical applications.

| Structure (SMILES) | keratolytic properties (removing scales) |
| --- | --- |
| [Cl-].[Na+] [sodium chloride] | not having keratolytic properties |
| Cl.N [ammonium chloride] | showing keratolytic properties by removing scales |
